Source: patent US20160108135A1, “GHRELIN IN THE DIAGNOSIS OF CNS DISORDERS” (priority 2013, published 2016)
Entries after “also recorded” stand apart in the source; their conditions may differ. Ends that are not written are not given here. * marks the point of attachment. Octanoyl = CCCCCCCC(=O)*

Assays:
[1] = system: dividing cells (Ki67+) in the sub-granular zone of the dentate gyrus; assay: Ki67 cell proliferation in hippocampal dentate gyrus of wild-type and ghsr-/- mice; type: in vivo; conditions: i.v. 48 μg/day for 7 days; for Ki67+ cells (cell proliferation) in the DG of adult wild-type mice: vs saline
Description: To further examine the role of ghrelin in enhancing cell proliferation in the SGZ, the effect of peripherally administered ghrelin in both wild-type and ghrelin-receptor null (ghsr^−/−) mice (Zigman et al. J. Clin. Invest (2005)115 (12:3564-72)) was analysed.
Adult growth hormone secretagogue receptor (GHSR)-null mice (8-10 weeks-old) and their wild-type littermates were used. These were derived from crosses between animals that were heterozygous for the GHSR-null allele and that had been backcrossed >10 generations onto a C57BL6/J genetic background. Metabolic aspects of these mice have been published (Davies et al. 2009 Molecular Endocrinology, 23(6), 914-24.).
Ghrelin was administered peripherally via an intravenous osmotic mini-pump at a rate of 1 μl/hour with a total of 48 μg/day to groups of 6 mice. Control groups were given peripheral saline.
After 7 days, mice were killed by cervical dislocation whole brain was removed and immediately snap frozen on dry ice.
(§1) Cell proliferation in the hippocampal dentate gyms was subsequently analysed using a one-in-fifteen series of 10 μm sections (150 μm apart) from each animal. These were stained for Ki67 immunofluorescence and a primary antibody rabbit anti-Ki67 (1:500 Abcam) applied. Immunolabelled cells were counted throughout the rostro-caudal extent of the granule cell layer and quantified.
(§2) Immunolabelled cells were counted bilaterally using a ×40 objective (Zeiss Axioscope) throughout the rostro-caudal extent of the granule cell layer (GCL). Resulting numbers were divided by the number of coronal sections analyzed and multiplied by the distance between each section to obtain an estimate of the number of cells per hippocampus (and divided by 2 to obtain the total per dentate gyms).
All experiments and analyses were performed blind to genotype and treatment.
Statistical analyses were carried out using GraphPad Prizm 6.0 for Mac. Statistical significance was assessed by unpaired two-tailed Student's t-test or one-way ANOVA with Bonferroni's post-hoc test unless described otherwise: *, P<0.05; **, P<0.01; ***, P<0.001.
(§3) To determine whether unacylated-ghrelin (UAG) regulates NSPC plasticity, cell proliferation and immature neurons were quantified in wild-type mice following either peripheral administration of saline or UAG (i.v, 48 μg/day, n=6/group) for 7-days. The method was similar to that described in Example 1.

[2] = system: immature DCX+ neurons within the SGZ; assay: Immature DCX+ neurons in the SGZ of wild-type mice; type: in vivo; conditions: i.v. 48 μg/day for 7 days, vs vehicle
Description: as §1, §2, §3

Ghsr = conditions: cited from earlier work
adult rat hippocampus = assay: BrdU+ cell proliferation in adult rat hippocampus after 7-day i.v. infusion (FIG. 1A); type: in vivo; conditions: 7-day i.v. infusion 80 μg/day; BrdU 50 mg/kg i.p 30 minutes prior to brain collection; vs vehicle
[3] = system: spatial pattern separation; assay: Spontaneous location recognition (SLR) task, spatial pattern separation; type: in vivo, rat; conditions: rats, 10 μg/kg i.p daily days 1-14, tested days 22-26
Description: A) Experimental paradigm B) Schematic of Spontaneous location recognition (SLR) task. During a sample phase animals were exposed to 3 identical objections (two were located close together (small separation) or very close together (X-small separation) and the 3rd was further away) for 10 minutes. 24 hours later the rats were exposed to 2 of the objects during the test phase and the time spent exploring each object was measured. Dotted objects indicate the original location during the sample phase. C) Discrimination ratios during the test phase for ‘novel’ conditions in the SLR task. […] D) Representative images of the new adult-born DG neurons (white arrows) co-expressing NeuN^+ and BrdU^+. […] Scale bar=100 μm.
(§4) Adult male Lister-hooded rats (n=12/group) were given daily injections of either saline or ghrelin (10 μg/kg i.p) (days 1-14) and BrdU (50 mg/kg i.p) on days 5-8 prior to analysis of spatial pattern separation using a spontaneous location recognition task (SLR) on days 22-26.
To reduce/avoid the acute LTP-mediated effects on pattern separation the final injection of ghrelin was given 7 days before the start of cognitive testing.

[4] = system: new adult-born DG neurons; assay: New adult-born neurons (BrdU+/NeuN+) and neuroblasts (DCX+) in rat DG; type: in vivo; conditions: rats; for total number of new adult-born neurones (BrdU+/NeuN+) in the DG: 10 μg/kg i.p daily days 1-14, BrdU days 5-8, vs saline
Description: as §4
Animals were anesthetized with sodium pentobarbital and perfused transcardially with 0.9% NaCl solution, followed by 4% paraformaldehyde (PFA) in 0.1M phosphate buffer, pH 7.4. Brains were post-fixed in 4% PFA for 24 h, and cryoprotected in 30% sucrose for 24 h. The brains were then sectioned on a freezing-stage microtome into a 30 μm thick coronal section series. Immunohistochemical staining was performed on free-floating sections.
For detection of BrdU, sections were pre-treated with 2N HCl for 30 mins at 37° C. and washed in 0.1 M borate buffer, pH8.5, for 10 min. Immunofluorescent double-labeling was performed.
Primary antibodies used were: mouse anti-BrdU (1:50 AbD Serotec, UK), goat anti-doublecortin (Santa Cruz Biotechnology, USA), mouse anti-NeuN (Chemicon, Temecula, Calif., USA). Sections were also stained with Hoechst (Invitrogen) and mounted with prolong-gold anti-fade reagent (Invitrogen).
A one-in-twelve series of 30 μm sections (360 μm apart) from each animal was immunohistologically stained (as described in Example 1 above) and analysed by fluorescent and/or confocal microscopy. Immunolabelled cells were counted also as described in Example 1. Only cells with complete/strong BrdU immunoreactivity, oval nuclei, were counted.

[5] = rats; 10 μg/kg i.p; cited from earlier work

## UAG: unacylated-ghrelin, the de-acylated form of ghrelin (GSSFLSPEHQRVQQRKESKKPPAKLQPR; Ghrelin-28 unacylated; UniProt Q9UBU3 24-51, looked up)
[1]
  Ki67+ cells (cell proliferation) in the DG of adult wild-type mice: impairments observed in hippocampal cell proliferation; also recorded: reduced the number of dividing cells; also recorded: attenuated hippocampal cell proliferation
[2]
  number of immature DCX+ neurons within the SGZ: impairments; also recorded: reduced; also recorded: significant reduction in the number of immature DCX^+ neurons
Ghsr
  binding or activation of Ghsr: does not bind or activate Ghsr

## ghrelin: gut hormone, 28 amino acid peptide with octanoyl modification on Ser-3; endogenous ligand of GHS-R 1a (GSS(Octanoyl)FLSPEHQRVQQRKESKKPPAKLQPR; UniProt Q9UBU3 24-51, looked up)
Adult rat hippocampus
  number of BrdU+ cells in adult rat hippocampus: increased the number of BrdU^+ cells
[1]; ghrelin-receptor null (ghsr-/-) mice
  Ki67+ cells (cell proliferation) in the DG of ghsr-/- mice: no corresponding increase was observed; also recorded: inhibited the proliferative effect of ghrelin
[1]
  Ki67+ cells (cell proliferation) in the DG of adult wild-type mice: increased Ki67^+ cells
[1]; listed as Ghrelin
  Ki67+ cells (cell proliferation) in the DG of adult wild-type mice: significant increase in cell proliferation
[3]
  SLR task, discrimination of 'novel' location, X-small separation condition (pattern separation): only ghrelin treated rats showed enhanced exploratory behaviour; also recorded: able to distinguish between very similar spatial locations
  SLR task, discrimination of 'novel' location, small separation condition: enhanced exploratory behaviour for the ‘novel’ location in the small separation condition; also recorded: able to distinguish similar but distinct spatial locations
[3]; listed as acyl-ghrelin
  SLR task, discrimination of 'novel' location, X-small separation condition (pattern separation): improved pattern separation learning
[4]
  total number of new adult-born neurones (BrdU+/NeuN+) in the DG: significantly increased
[4]; listed as Ghrelin
  total number of new adult-born neurones (BrdU+/NeuN+) in the DG: significantly increased the number of new adult-born neurons
[4]; listed as acyl-ghrelin
  total number of new adult-born neurones (BrdU+/NeuN+) in the DG: increased the number of new adult born neurons
[4]; 14 days after the final injection, data not shown
  DG neuroblast number (DCX+): remained significantly higher
[5]
  food intake: increase food intake
